Measurements published in publication PMC12391994, “Synthesis of a fac-Tricarbonylrhenium(I) Complex with Pyrithione, Its Physicochemical Characterization, and Assessment of Biological Effects” (ACS Omega, 2025).

What was measured:
[1] = biological target: T1, cathepsin B (exopeptidase activity) (Homo sapiens, UniProt P07858); assay: Relative inhibition of cathepsin B exopeptidase activity; type: biochemical; conditions: 50 μM; substrate Abz-Gly-Ile-Val-Arg-Ala-Lys-(Dnp)-OH; pH 5.0
T1 construct: made in house; host or cells: E. coli
Text: Relative inhibition is expressed as a percentage of the decrease in reaction velocity in the presence of an inhibitor, in comparison to the reaction velocity in the absence of an inhibitor. For that purpose, the specific fluorogenic substrates Z-Arg-Arg-7-amido-4-methylcoumarin (Z-Arg-Arg-AMC) and 2-aminobenzoyl (Abz)-Gly-Ile-Val-Arg-Ala-Lys-(Dnp)-OH were used for cathepsin B endopeptidase and exopeptidase activities, respectively, and Z-Phe-Arg-AMC was used for cathepsin L and V activities.
Human recombinant cathepsin B was expressed in E. coli, recombinant cathepsin V was expressed in Pichia pastoris, and human recombinant cathepsin L was expressed in E. coli, as reported. − For the determination of cathepsin B endopeptidase and exopeptidase activities, 100 mM phosphate buffer (pH 6.0) and 60 mM acetate buffer (pH 5.0) were used, respectively, and for the determination of cathepsin V and L activities, 100 mM acetate buffer (pH 5.5) was used. All buffers contained 0.1% PEG 8000 (Sigma-Aldrich, St. Louis, MO), 5 mM cysteine, and 1.5 mM EDTA. Prior to the assay, the enzymes were activated in the assay buffer for 5 min at 37 °C.
To determine the effect of inhibitors on enzyme activity, the following substrates were used: Z-Arg-Arg-AMC (final concentration 5 μM, Z-RR-AMC; Bachem, Bubendorf, Switzerland) for cathepsin B endopeptidase activity, Abz-Gly-Ile-Val-Arg-Ala-Lys-(Dnp)-OH (final concentration 1 μM, Abz-GIVRAK-(Dnp)-OH; Bachem) for cathepsin B exopeptidase activity, and Z-Phe-Arg-AMC (final concentration 2 μM, Z-FR-AMC; Bachem) for cathepsin V and L activity. The substrate ([…]) at a final concentration and inhibitor ([…]) at a concentration of 50 μM were added to the wells of a black microplate. The reaction was then initiated by adding 90 μL of activated enzyme (final concentrations: 5 nM cathepsin B for its endopeptidase activity, 0.5 nM cathepsin B for its exopeptidase activity, 2.5 ng/mL for cathepsin V, and 0.02 nM for cathepsin L) in the assay buffer. The formation of fluorescent degradation products during the reaction was continuously monitored at 460 ± 10 nm with excitation at 380 ± 20 nm for Z-Arg-Arg-AMC and Z-Phe-Arg-AMC and at 420 ± 10 nm with excitation at 320 ± 20 nm for Abz-Gly-Ile-Val-Arg-Ala-Lys(Dnp)-OH at 37 °C on a Tecan Infinite M1000 (Mannedorf, Switzerland) spectrofluorometer. All assay mixtures contained 5% (v/v) DMSO. To prevent false-positive inhibition due to the formation of compound aggregates, 0.01% Triton X-100 was used. All measurements were performed in triplicate and repeated twice. The relative inhibition was calculated using the following equation: relative inhibition (%) = 100(1 – v i/v o), where v i and v o designate the reaction velocities in the presence and absence of inhibitor, respectively.

[2] = system: S. aureus MRSA ATCC 43300; assay: Antibacterial MIC assay, S. aureus MRSA ATCC 43300; type: cell-based, Staphylococcus aureus; conditions: 18 h, visual inspection
Experimental: The antibacterial effect of the complex was tested against the Gram-negative strain Escherichia coli (E. coli) ATCC 25922, the Gram-positive reference strain Staphylococcus aureus (S. aureus) ATCC 25923, and the methicillin-resistant S. aureus MRSA ATCC 43300 strain. MRSA strains are responsible for several difficult-to-treat hospital-acquired infections.
The following bacterial strains were used in our experiments: Gram-positive S. aureus American Type Culture Collection (ATCC) 25923 as the methicillin-susceptible reference bacterial strain; methicillin-resistant S. aureus ATCC 43300 (MRSA) strain; E. coli ATCC 25922 as a Gram-negative bacterial strain.
MIC values of the complexes were determined in 96-well plates based on the Clinical and Laboratory Standard Institute guidelines (CLSI guidelines). The stock solutions of the compound (dissolved in DMSO at 5 mM concentration) were diluted in 100 μL of Mueller Hinton Broth. Then, 10^–4 dilution of an overnight bacterial culture in 100 μL of medium was added to each well, with the exception of the medium control wells.

HeLa cells = assay: MTT cytotoxicity assay, HeLa; type: cell-based, human; conditions: 72 h incubation
Experimental: Its cytotoxicity was determined in the human HeLa cervical cancer cell line, the drug-sensitive Colo205 and its resistant counterpart, the ABCB1 expressing Colo320 colon adenocarcinoma cancer cell lines, using the colorimetric 3-(4,5-dimethylthiazol-2-yl)-2,5-diphenyltetrazolium bromide (MTT) test. To investigate the selectivity toward cancer cells, the noncancerous fibroblast CCD-19Lu cell line was included.
The tested compound was dissolved in DMSO to prepare a 5 mM stock solution, which was diluted in complete culture medium, to study the effect of compounds on cell growth of human colonic adenocarcinoma cell lines. Doxorubicin was used as the positive control. The cells were treated with a trypsin-versene (EDTA) solution. Cells were adjusted to a density of 1 × 10^4 cells in 100 μL of the appropriate culture medium and were added to each well, with the exception of the medium control wells. Except for the semiadherent Colo205 and Colo320 cell lines, the other adherent cell lines were seeded 24 h prior to the assay. Then, stock solutions were diluted in the appropriate culture medium, and 2-fold serial dilutions of compounds were prepared in 100 μL of the medium, horizontally. […] Cell growth was determined by measuring the optical density (OD) at 540/630 nm with a Multiscan EX ELISA reader (Thermo Labsystems, Cheshire, WA). […]

For `N#Cc1ccccc1.[C-]#[O+].[C-]#[O+].[C-]#[O+].[O-]n1ccccc1=S.[Re+]` [complex 4, fac-[Re(CO)3(pth)(benzonitrile)]], the “relative inhibition cathepsin B exopeptidase” value [1] was 37.5 ± 2.1%, the “MIC S. aureus MRSA ATCC 43300” value [2] was 12.5 µM and the IC50 (HeLa cells) was 7.96 ± 0.98 µM.
